Ends that are not written are not given here.
What was measured:
lactobacilli = assay: activity against lactobacilli (dairy starter culture); type: cell-based; conditions: dairy starter culture comprising lactobacilli
Source text: In separate experiments, the peptide AGG01 (SEQ ID NO: 7) or AG002 (SEQ ID NO: 8) is shown to be suitable for use in a dairy starter culture comprising lactobacilli, especially one or more Lactis spp., in particular one or more organisms selected individually or collectively from the group consisting of: L. helveticus, L. acidophilus, L. lactis, L. bugaricus and L. citrovorum, and especially L. acidophilus.

[1] = bioactivity of peptides in milk; conditions: 200 μg/ml, 37° C., 30 or 60 min, data not shown
milk proteases = assay: Western blotting of CHO cell extracts incubated in bovine milk; conditions: CHO cell extract, 2 hr
Protocol: Western blotting of cell lysates was performed according to standard procedures to confirm expression of peptides in mammalian cells. Briefly, cell extracts and culture supernatants were obtained from CHO cells transfected with the vectors pCMV-SPORT6-AGG01 and pCMV-SPORT6-AGG02, resolved in 18% (w/v) SDS/polyacrylamide electrophoresis gels, transferred by electroblotting onto nitrocellulose membrane and either stained in Ponceau S or probed with polyclonal antisera. In a further example, cell extracts were incubated in bovine milk for 2 hrs prior to their preparation for electrophoresis, to determine stability in milk. Control samples comprises non-transfected CHO cell extracts and supernatants. Membranes were developed using polyclonal rabbit anti-mAGG01 serum that had been produced according to standard procedures, by immunizing rabbits with synthetic peptide (i.e., SEQ ID NO: 7).

E. coli DH5α = assay: microbroth dilution method, peptide and antibiotic combination; type: cell-based; conditions: tetracycline or chloramphenicol, E. coli DH5α
Protocol: To determine whether or not antimicrobial peptides as described herein act in a synergistic manner with antibiotic compounds, a microbroth dilution method was performed against E. coli DH5α performed according to the guidelines of the National Committee for Clinical Laboratory Standards.

S. uberis = conditions: both high and low salt concentrations
[2] = system: Staphylococcus aureus (ATCC 25923)
[3] = system: Streptococcus agalactiae (ATCC 12927)
[4] = system: Candida albicans (ATCC 753)
[5] = system: all microorganisms tested; conditions: for antimicrobial activity against pathogens that cause mastitis (in words): S. uberis, E. coli, S. aureus and S. agalactiae
S. aureus = conditions: for activity against isolates (in words): S. aureus otitis externa isolates
S. schleiferi = conditions: for activity against isolates (in words): S. schleiferi otitis externa isolates
S. epidermis = conditions: for activity against isolates (in words): S. epidermis otitis externa isolates
S. pseudointermedin = conditions: for activity against isolates (in words): S. pseudointermedin otitis externa isolates
Pseudomonas aeruginosa = conditions: for activity against isolates (in words): Pseudomonas aeruginosa otitis externa isolates
[6] = heat resistance of antimicrobial peptides; conditions: 200 μg/ml; for antimicrobial bioactivity in phosphate buffer following heat treatment (in words): 10 mM phosphate buffer, up to 56° C. 30 min or 70° C. 15 min; for bioactivity in pasteurized milk following heat treatment (in words): pasteurised milk, up to 68° C. 30 min or 71.7° C. 20 sec, data not shown
[7] = system: Salmonella choleraesuis (ATCC 14028)
[8] = system: Streptococcus equi equi (ATCC 9527)

KRGFGKKLRKRLKKFRNSIKKRLKNFNVVIPIPLP-NH2 [SEQ ID NO: 7]
activity against lactobacilli (in words) (lactobacilli): low activity against lactobacilli | antimicrobial bioactivity in fresh milk (in words) [1]: retained | antimicrobial bioactivity in pasteurized milk (in words) [1]: slightly reduced | presence of peptide following incubation with bovine milk (Western blot, in words) (milk proteases): present | synergy with antibiotics (in words) (E. coli DH5α): act synergistically | inhibiting growth of and/or killing S. uberis (in words) (S. uberis): capable of inhibiting growth of and/or killing S. uberis | MIC [2]: 5.72 ± 0.37 µg/mL | MIC [3]: 3.81 µg/mL | MIC [4]: 5.48 ± 0.16 µg/mL | antimicrobial activity against pathogens that cause mastitis (in words) [5]: exhibited antimicrobial activity | MIC, active against all microorganisms tested ([5]; summary of Table 1): less than 10 μg/ml | MIC (E. coli): 1 to 8 µg/mL | activity against isolates (in words) (E. coli; E. coli BRD/SRD isolates): especially strong activity | MIC (P. haemolytica): 1 to 16 µg/mL | activity against isolates (in words) (P. haemolytica; P. haemolytica BRD/SRD isolates): possibly also against P. haemolytica | MIC (P. multicoda): 16 µg/mL | MIC (B. bronchiseptica): 1 to 2 µg/mL | activity against isolates (in words) (B. bronchiseptica; B. bronchiseptica BRD/SRD isolates): especially strong activity | MIC (H. somnus): 16 µg/mL | activity against isolates (in words) (H. somnus; H. somnus BRD/SRD isolates): weaker activity | MIC (A. pleuropneumoniae): 8 µg/mL | activity against isolates (in words) (A. pleuropneumoniae; A. pleuropneumoniae BRD/SRD isolates): Intermediate activity | MIC (S. suis): 16 to 32 µg/mL | activity against isolates (in words) (S. suis; S. suis BRD/SRD isolates): weaker activity | MIC (S. choleraesuis): 4 to 8 µg/mL | MIC (S. aureus): 2 µg/mL | activity against isolates (in words) (S. aureus): especially strong activity | MIC (S. schleiferi): 2 to 4 µg/mL | activity against isolates (in words) (S. schleiferi): especially strong activity | MIC (S. epidermis): 1 µg/mL | activity against isolates (in words) (S. epidermis): especially strong activity | MIC (S. pseudointermedin): 1 to 2 µg/mL | activity against isolates (in words) (S. pseudointermedin): especially strong activity | MIC (Pseudomonas aeruginosa): 2 to 4 µg/mL | activity against isolates (in words) (Pseudomonas aeruginosa): Strong antimicrobial activity | antimicrobial bioactivity in phosphate buffer following heat treatment (in words) [6]: retain their antimicrobial bioactivity | bioactivity in pasteurized milk following heat treatment (in words) [6]: active in pasteurized milk, even following heat treatment

KRGLWESLKRKATKLGDDIRNTLRNFKIKFPVPRQ-NH2 [SEQ ID NO: 8]
activity against lactobacilli (in words) (lactobacilli): low activity against lactobacilli | antimicrobial bioactivity in fresh milk (in words) [1]: reduced or inhibited | antimicrobial bioactivity in pasteurized milk (in words) [1]: reduced or inhibited | synergy with antibiotics (in words) (E. coli DH5α): act synergistically | MIC [7]: 9.32 ± 0.38 µg/mL | MIC [2]: 5.44 ± 0.49 µg/mL | MIC [8]: 4.85 ± 0.35 µg/mL | MIC [3]: 1.2 µg/mL | MIC [4]: 10.01 ± 0.47 µg/mL | antimicrobial activity against pathogens that cause mastitis (in words) [5]: has antimicrobial activity | MIC (E. coli): 8 to 32 µg/mL | MIC (P. haemolytica): 4 to 64 µg/mL | MIC (P. multicoda): 8 to 32 µg/mL | MIC (B. bronchiseptica): 32 µg/mL | MIC (H. somnus): 32 µg/mL | MIC (A. pleuropneumoniae): 16 µg/mL | MIC (S. suis): 4 to 8 µg/mL | MIC (S. choleraesuis): >64 µg/mL | MIC (S. aureus): 4 µg/mL | activity against isolates (in words) (S. aureus): especially strong activity | MIC (S. schleiferi): 2 to 4 µg/mL | activity against isolates (in words) (S. schleiferi): especially strong activity | MIC (S. epidermis): 2 µg/mL | activity against isolates (in words) (S. epidermis): especially strong activity | MIC (S. pseudointermedin): 1 µg/mL | activity against isolates (in words) (S. pseudointermedin): especially strong activity | MIC (Pseudomonas aeruginosa): 8 to 32 µg/mL | activity against isolates (in words) (Pseudomonas aeruginosa): slightly weaker activity | antimicrobial bioactivity in phosphate buffer following heat treatment (in words) [6]: retain their antimicrobial bioactivity | bioactivity in pasteurized milk following heat treatment (in words) [6]: reduced or inhibited

— patent US20110209228A1, “METHOD OF TREATMENT USING ANTIMICROBIAL COMPOSITION” (priority 2008, published 2011)
